Results on four molecules are retold here after patent EP1200445B1, “THIENOPYRANECARBOXAMIDE DERIVATIVES” (RECORDATI INDUSTRIA CHIMICA E FARMACEUTICA S.p.a., priority 1999, dated 2001).

Where two headings read alike, the source gives them in different places. Some results are limits rather than exact numbers.

The test system of data set [1] is diastolic blood pressure (DBP). Particulars: dogs, i.v.; data from Leonardi et al., J Pharmacol Exp Ther 281, 1272-1283 (1997); cited from earlier work.
Data set [2] has as its system urethral contractions (UC) induced by noradrenaline (NA). The settings on record: dogs, i.v.; data from Leonardi et al., J Pharmacol Exp Ther 281, 1272-1283 (1997); cited from earlier work.
In a further data set the target is T1, α1L adrenoceptor subtype (Oryctolagus cuniculus, UniProt O02824).
T1 sequence (O02824 1-466): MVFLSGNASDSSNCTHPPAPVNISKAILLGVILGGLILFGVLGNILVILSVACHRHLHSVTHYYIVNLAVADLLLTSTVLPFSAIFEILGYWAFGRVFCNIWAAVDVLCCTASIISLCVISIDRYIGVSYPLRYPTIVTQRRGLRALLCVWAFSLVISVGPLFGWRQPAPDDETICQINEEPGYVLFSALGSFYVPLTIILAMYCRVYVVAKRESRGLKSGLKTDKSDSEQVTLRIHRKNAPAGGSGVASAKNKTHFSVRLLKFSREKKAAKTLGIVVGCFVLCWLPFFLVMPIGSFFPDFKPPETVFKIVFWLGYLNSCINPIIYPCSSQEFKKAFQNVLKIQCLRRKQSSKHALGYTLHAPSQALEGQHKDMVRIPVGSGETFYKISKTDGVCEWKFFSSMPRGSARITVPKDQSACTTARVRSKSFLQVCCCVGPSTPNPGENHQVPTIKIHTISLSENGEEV
In words: Functional affinity for α1L-adrenoceptors: noradrenaline-induced contractions of rabbit aorta pretreated with chloroethylclonidine. The settings on record: rabbit aorta rings pretreated with chloroethylclonidine, NA-induced contractions, Schild plot or apparent Kb. Type of data set: biochemical. Here is the method:
Adult male New Zealand rabbits were sacrificed by cervical dislocation. The aorta was removed, placed in Krebs-Henseleit buffer and dissected free of adhering tissue. […] After washout of NA and re-equilibration of the tissue (45 minutes), the drug to be tested was added and, after 30 minutes, a second NA-cumulative-concentration/response curve constructed. Each antagonist concentration was tested using 2-3 aortic rings from different rabbits.

Data set [3] has as its system urethral contractions (UC) induced by noradrenaline (NA). In words: Effects on urethral contractions induced by noradrenaline injection in dogs after i.v. administration. The class given is in vivo, beagle dogs. Particulars: for ED50: Canis lupus familiaris, iv, anaesthetised male beagle dogs, i.v., dose inhibiting by 50% the NA-induced increase in urethral pressure, read-out: UC ID50 NA; for Ratio (DBP/UC): ratio between the active doses DBP ED25 / UC ID50, dogs i.v. Here is the method: The experiments were performed according to the method of Imagawa et al. (J. Pharmacol. Methods 22, 103-111 (1989)), with substantial modifications, as follows: adult male beagle dogs, weighing 8-10 kg, were anaesthetised with pentobarbital sodium (30 mg/kg i.v. and 2 mg/kg/h i.v.), intubated and spontaneously ventilated with room air. In order to monitor systemic blood pressure (BP), a polyethylene (PE) catheter was introduced into the aortic arch through the left femoral artery. A collateral of the left femoral vein was cannulated for infusion of anaesthetic, and the right femoral vein was cannulated for administration of compounds. For intraarterial (i.a.) injection of noradrenaline (NA), a PE catheter was introduced into the lower portion of the abdominal aorta via the right external iliac artery. Through such procedure, NA was selectively distributed to the lower urinary tract. A paramedian vertical suprapubic incision extending from the base of the pelvis to the mid-abdominal region was made and the bladder and the prostate were exposed. The bladder was manually emptied with a syringe. Prostatic urethral pressure was monitored with a Mikro-tip cathe[…]) introduced into the bladder via the external urethral meatus, and withdrawn until the pressure transducer was positioned in the prostatic region of the urethra. A ligature was secured between the neck of the bladder and urethra to isolate the response of the latter and to avoid any interaction with the bladder. Another ligature was put around the Mikro-tip catheter at the external meatus, to secure the catheter itself. […] In order to compare the effects of the administered compound, dose/response curves (log dose transformation) were constructed by computing, at the peak effect, the percent decrease in diastolic blood pressure and percent inhibition of the increase in urethral pressure induced by NA.

Data set [4] concerns diastolic blood pressure (DBP). In words: Effects on blood pressure in dogs after i.v. administration. Type of data set: in vivo. The settings on record: anaesthetised male beagle dogs, dose inducing a 25% decrease in diastolic blood pressure. On the procedure: The experiments were performed according to the method of Imagawa et al. (J. Pharmacol. Methods 22, 103-111 (1989)), with substantial modifications, as follows: adult male beagle dogs, weighing 8-10 kg, were anaesthetised with pentobarbital sodium (30 mg/kg i.v. and 2 mg/kg/h i.v.), intubated and spontaneously ventilated with room air. In order to monitor systemic blood pressure (BP), a polyethylene (PE) catheter was introduced into the aortic arch through the left femoral artery. A collateral of the left femoral vein was cannulated for infusion of anaesthetic, and the right femoral vein was cannulated for administration of compounds. For intraarterial (i.a.) injection of noradrenaline (NA), a PE catheter was introduced into the lower portion of the abdominal aorta via the right external iliac artery. Through such procedure, NA was selectively distributed to the lower urinary tract. A paramedian vertical suprapubic incision extending from the base of the pelvis to the mid-abdominal region was made and the bladder and the prostate were exposed. The bladder was manually emptied with a syringe. Prostatic urethral pressure was monitored with a Mikro-tip catheter (5F) introduced into the bladder via the external urethral meatus, and withdrawn until the pressure transducer was positioned in the prostatic region of the urethra. A ligature was secured between the neck of the bladder and urethra to isolate the response of the latter and to avoid any interaction with the bladder. Another ligature was put around the Mikro-tip catheter at the external meatus, to secure the catheter itself.
After a stabilising period following the surgical procedure (30 minutes), in which arterial and prostatic urethral pressures were continuously monitored as basal values, i.a. administration of NA was made at intervals of 20 minutes.
The doses of NA chosen were such to produce an increase of at least 100% in urethral pressure. The test compounds were administered i.v. in a cumulative manner with intervals of 15-20 minutes between administrations. […]

As to `COc1ccccc1N1CCN(CCCNC(=O)c2cccc3c(=O)c(C)c(-c4ccccc4)oc23)CC1` [Compound A], the “DBP ED25” value in data set [1] is on record as 243 µg/kg. Moreover, the “UC ID50 NA” value in data set [2] was 2.4 µg/kg. The pKb at α1L adrenoceptor subtype stood at 8.64.

For `COc1ccc(Cl)cc1N1CCN(CCCNC(=O)c2csc3c(=O)cc(-c4ccccc4)oc23)CC1` [Example 1, N-{3-[4-(5-Chloro-2-methoxyphenyl)-1-piperazinyl]-propyl}-7-oxo-5-phenyl-7H-thieno[3,2-b]pyran-3-carboxamide], in data set [3], the ED50 was found to be 5.3 µg/kg and the “Ratio (DBP/UC)” value is recorded as 52.8. For the same molecule, the “DBP ED25” value in data set [4] is reported as 280 µg/kg.

On to `COc1ccccc1N1CCN(CCCNC(=O)c2csc3c(=O)cc(-c4ccccc4)oc23)CC1` [Example 2, N-{3-[4-(2-Methoxyphenyl)-1-piperazinyl]-propyl}-7-oxo-5-phenyl-7H-thieno[3,2-b]pyran-3-carboxamide], for which, in data set [3], the ED50 amounted to 1.8 µg/kg and the “Ratio (DBP/UC)” value is on record as 19.7. The “DBP ED25” value in data set [4] is reported as 35.5 µg/kg.

For the molecule `O=C(NCCCN1CCN(c2ccccc2OCC(F)(F)F)CC1)c1csc2c(=O)cc(-c3ccccc3)oc12` [Example 5, 7-Oxo-5-phenyl-N-{3-[4-[2-(2,2,2-trifluoroethoxy)-phenyl]-1-piperazinyl]-propyl}-7H-thieno[3,2-b]pyran-3-carboxamide], in data set [3], the ED50 was 2.7 µg/kg and the “Ratio (DBP/UC)” value was above 370. Also, the “DBP ED25” value in data set [4] is listed as above 1000 µg/kg.
